According to ChEMBL document CHEMBL1201862, “PubChem BioAssay data set” (2004):
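Five concentrations, 48 hours, 96-well plates. Abbreviation: GI50, concentration required for 50% inhibition of growth.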 The source made the active and inactive calls. No stated cut-off is given here; in the data, active = GI50 up to about 1.1 µM and inactive = higher.

Columns and labels:
Assay in all cases: NCI anticancer screen, dose series, 48 h
SR = tested on: SR
Malme-3M = tested on: Malme-3M
A549 = tested on: A549
NCI-H23 = tested on: NCI-H23
A498 = tested on: A498
SK-MEL-5 = tested on: SK-MEL-5
BT-549 = tested on: BT-549
OVCAR-4 = tested on: OVCAR-4
SF-539 = tested on: SF-539
OVCAR-5 = tested on: OVCAR-5
Hs-578T = tested on: Hs-578T
786-0 = tested on: 786-0
HL-60 = tested on: HL-60
SK-OV-3 = tested on: SK-OV-3
MOLT-4 = tested on: MOLT-4
TK-10 = tested on: TK-10
DU-145 = tested on: DU-145
SK-MEL-2 = tested on: SK-MEL-2
CAKI-1 = tested on: CAKI-1
SF-268 = tested on: SF-268

SMILES: [O-][N+]1(CC[N+]2([O-])CCCCC2)CCCCC1
- GI50 (SR): > 100 µM (inactive)
- GI50 (Malme-3M): > 100 µM (inactive)
- GI50 (A549): > 100 µM (inactive)
- GI50 (NCI-H23): > 100 µM (inactive)
- GI50 (A498): > 100 µM (inactive)
- GI50 (SK-MEL-5): > 100 µM (inactive)
- GI50 (BT-549): > 100 µM (inactive)
- GI50 (OVCAR-4): > 100 µM (inactive)
- GI50 (SF-539): > 100 µM (inactive)
- GI50 (OVCAR-5): > 100 µM (inactive)
- GI50 (Hs-578T): > 100 µM (inactive)
- GI50 (786-0): > 100 µM (inactive)
- GI50 (HL-60): > 100 µM (inactive)
- GI50 (SK-OV-3): > 100 µM (inactive)
- GI50 (MOLT-4): > 100 µM (inactive)
- GI50 (TK-10): > 100 µM (inactive)
- GI50 (DU-145): > 100 µM (inactive)
- GI50 (SK-MEL-2): > 100 µM (inactive)
- GI50 (CAKI-1): > 100 µM (inactive)
- GI50 (SF-268): > 100 µM (inactive)

SMILES: COc1ccc(S(=O)(=O)N/N=C/C(=O)O)cc1
- GI50 (SR): 202 µM (inactive)
- GI50 (Malme-3M): 832 µM (inactive)
- GI50 (A549): 849 µM (inactive)
- GI50 (NCI-H23): 369 µM (inactive)
- GI50 (A498): 495 µM (inactive)
- GI50 (SK-MEL-5): 400 µM (inactive)
- GI50 (BT-549): 284 µM (inactive)
- GI50 (OVCAR-4): 524 µM (inactive)
- GI50 (SF-539): 519 µM (inactive)
- GI50 (OVCAR-5): 873 µM (inactive)
- GI50 (Hs-578T): 404 µM (inactive)
- GI50 (786-0): 397 µM (inactive)
- GI50 (HL-60): 185 µM (inactive)
- GI50 (SK-OV-3): 971 µM (inactive)
- GI50 (MOLT-4): 193 µM (inactive)
- GI50 (TK-10): 832 µM (inactive)
- GI50 (DU-145): 327 µM (inactive)
- GI50 (SK-MEL-2): 428 µM (inactive)
- GI50 (CAKI-1): 458 µM (inactive)
- GI50 (SF-268): 384 µM (inactive)

SMILES: O=S(=O)(N=S(c1ccc(Cl)cc1)c1ccc(Cl)cc1)c1ccccc1
- GI50 (SR): 37.5 µM (inactive)
- GI50 (Malme-3M): > 100 µM (inactive)
- GI50 (A549): 74.5 µM (inactive)
- GI50 (NCI-H23): 63.4 µM (inactive)
- GI50 (A498): 19.7 µM (inactive)
- GI50 (SK-MEL-5): 71 µM (inactive)
- GI50 (BT-549): > 100 µM (inactive)
- GI50 (OVCAR-4): 58.5 µM (inactive)
- GI50 (SF-539): > 100 µM (inactive)
- GI50 (OVCAR-5): > 100 µM (inactive)
- GI50 (Hs-578T): 56.9 µM (inactive)
- GI50 (786-0): > 100 µM (inactive)
- GI50 (HL-60): 27.5 µM (inactive)
- GI50 (SK-OV-3): > 100 µM (inactive)
- GI50 (MOLT-4): 33.8 µM (inactive)
- GI50 (TK-10): > 100 µM (inactive)
- GI50 (DU-145): > 100 µM (inactive)
- GI50 (SK-MEL-2): > 100 µM (inactive)
- GI50 (CAKI-1): > 100 µM (inactive)
- GI50 (SF-268): > 100 µM (inactive)

SMILES: S=C(Nc1cc(Cl)c(Cl)cc1Cl)SCc1ccccc1
- GI50 (SR): 0.0129 µM (active)
- GI50 (Malme-3M): 28.2 µM (inactive)
- GI50 (A549): 30 µM (inactive)
- GI50 (NCI-H23): 20.1 µM (inactive)
- GI50 (A498): 32.9 µM (inactive)
- GI50 (SK-MEL-5): 20.7 µM (inactive)
- GI50 (BT-549): 26.2 µM (inactive)
- GI50 (OVCAR-4): 22.2 µM (inactive)
- GI50 (SF-539): 23.1 µM (inactive)
- GI50 (OVCAR-5): 22.8 µM (inactive)
- GI50 (Hs-578T): 34.3 µM (inactive)
- GI50 (786-0): 38.2 µM (inactive)
- GI50 (HL-60): 18.8 µM (inactive)
- GI50 (SK-OV-3): 56 µM (inactive)
- GI50 (MOLT-4): 22.8 µM (inactive)
- GI50 (TK-10): 24.7 µM (inactive)
- GI50 (DU-145): 39.4 µM (inactive)
- GI50 (SK-MEL-2): > 100 µM (inactive)
- GI50 (CAKI-1): 22.6 µM (inactive)
- GI50 (SF-268): 38.1 µM (inactive)

SMILES: CCOC(=O)/C=C(\C(=O)OCC)n1ccc(=O)n(Cc2cn(CCCCOC(C)=O)nn2)c1=O
- GI50 (SR): 10.1 µM (inactive)
- GI50 (Malme-3M): 2.18 µM (inactive)
- GI50 (A549): 21.9 µM (inactive)
- GI50 (NCI-H23): 16.6 µM (inactive)
- GI50 (A498): 17.6 µM (inactive)
- GI50 (SK-MEL-5): 20.5 µM (inactive)
- GI50 (BT-549): 10.4 µM (inactive)
- GI50 (OVCAR-4): 19.4 µM (inactive)
- GI50 (SF-539): 2.34 µM (inactive)
- GI50 (OVCAR-5): 14.3 µM (inactive)
- GI50 (Hs-578T): 22.7 µM (inactive)
- GI50 (786-0): 7.66 µM (inactive)
- GI50 (HL-60): 0.26 µM (active)
- GI50 (SK-OV-3): 32.4 µM (inactive)
- GI50 (MOLT-4): 2.4 µM (inactive)
- GI50 (TK-10): 6.4 µM (inactive)
- GI50 (DU-145): 20.5 µM (inactive)
- GI50 (SK-MEL-2): 18.8 µM (inactive)
- GI50 (CAKI-1): 4.25 µM (inactive)
- GI50 (SF-268): 17.7 µM (inactive)

SMILES: CC[C@H]1C=CCC[C@@]2(C[C@@H]3CC[C@@H]4[C@H](C(=O)OCCCCCCCCCCCCCCCC(=O)N(CCCNC(C)=O)C[C@H](CCNC(C)=O)OC(C)=O)[C@]5(CCC[C@@H](C)O5)NC(=[N+]34)N2)O1
- GI50 (SR): 0.0394 µM (active)
- GI50 (Malme-3M): 0.21 µM (active)
- GI50 (A549): 0.215 µM (active)
- GI50 (NCI-H23): 0.583 µM (active)
- GI50 (A498): 0.435 µM (active)
- GI50 (SK-MEL-5): 0.124 µM (active)
- GI50 (BT-549): 0.453 µM (active)
- GI50 (OVCAR-4): 0.183 µM (active)
- GI50 (SF-539): 0.26 µM (active)
- GI50 (OVCAR-5): 0.0557 µM (active)
- GI50 (Hs-578T): 0.391 µM (active)
- GI50 (786-0): 0.109 µM (active)
- GI50 (HL-60): 0.0745 µM (active)
- GI50 (SK-OV-3): 1.43 µM (inactive)
- GI50 (MOLT-4): 0.0328 µM (active)
- GI50 (TK-10): 0.759 µM (active)
- GI50 (DU-145): 0.0918 µM (active)
- GI50 (SK-MEL-2): 0.0404 µM (active)
- GI50 (CAKI-1): 0.561 µM (active)
- GI50 (SF-268): 0.187 µM (active)

SMILES: O=C(Cn1c(=O)oc2ccc(C(=O)c3cccc(Cl)c3)cc21)c1ccccc1
- GI50 (SR): 36.3 µM (inactive)
- GI50 (Malme-3M): 63 µM (inactive)
- GI50 (A549): 27.2 µM (inactive)
- GI50 (NCI-H23): > 100 µM (inactive)
- GI50 (A498): 33 µM (inactive)
- GI50 (SK-MEL-5): 23.1 µM (inactive)
- GI50 (BT-549): 18.1 µM (inactive)
- GI50 (OVCAR-4): 12.8 µM (inactive)
- GI50 (SF-539): > 100 µM (inactive)
- GI50 (OVCAR-5): > 100 µM (inactive)
- GI50 (Hs-578T): > 100 µM (inactive)
- GI50 (786-0): > 10 µM (inactive)
- GI50 (HL-60): 19.3 µM (inactive)
- GI50 (SK-OV-3): 42.1 µM (inactive)
- GI50 (MOLT-4): 49.4 µM (inactive)
- GI50 (TK-10): > 100 µM (inactive)
- GI50 (DU-145): > 100 µM (inactive)
- GI50 (SK-MEL-2): 67.3 µM (inactive)
- GI50 (CAKI-1): > 100 µM (inactive)
- GI50 (SF-268): > 100 µM (inactive)
